According to PubChem BioAssay (NCI):
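GI50 is the concentration that inhibits growth by half. TGI marks complete inhibition of growth.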

Columns and labels:
Test in all cases: NCI tumour cell line growth inhibition, 384-well format
SNB-19 CNS = test system: SNB-19 CNS
DU-145 prostate = test system: DU-145 prostate
TK-10 renal = test system: TK-10 renal
CAKI-1 renal = test system: CAKI-1 renal
HOP-62 NSCLC = test system: HOP-62 NSCLC
UO-31 renal = test system: UO-31 renal
K-562 leukemia = test system: K-562 leukemia
NCI-H322M lung = test system: NCI-H322M lung
SN12C renal = test system: SN12C renal
RPMI-8226 leukemia = test system: RPMI-8226 leukemia
SK-MEL-5 melanoma = test system: SK-MEL-5 melanoma
LOX IMVI melanoma = test system: LOX IMVI melanoma
RXF 393 renal = test system: RXF 393 renal

Structure (SMILES): C[C@@H]1CN(C(=O)c2ccc(NC(=O)c3cc(O[C@H](C)c4c(Cl)ccc(F)c4Cl)c(N)nn3)cc2)C[C@H](C)N1
- GI50 (SNB-19 CNS): 4.02 µM
- TGI (SNB-19 CNS): 13.5 µM
- GI50 (DU-145 prostate): 3.89 µM
- TGI (DU-145 prostate): 14.5 µM
- GI50 (TK-10 renal): 3.5 µM
- TGI (TK-10 renal): 10.3 µM
- GI50 (CAKI-1 renal): 2.16 µM
- TGI (CAKI-1 renal): 5.69 µM
- GI50 (HOP-62 NSCLC): 2.42 µM
- TGI (HOP-62 NSCLC): 7.03 µM
- GI50 (UO-31 renal): 3.53 µM
- TGI (UO-31 renal): 12.4 µM
- GI50 (K-562 leukemia): 0.152 µM
- TGI (K-562 leukemia): 0.319 µM
- GI50 (NCI-H322M lung): 5.08 µM
- TGI (NCI-H322M lung): 16.1 µM
- GI50 (SN12C renal): 1.82 µM
- TGI (SN12C renal): 11.7 µM
- GI50 (RPMI-8226 leukemia): 0.943 µM
- TGI (RPMI-8226 leukemia): 2.49 µM
- GI50 (SK-MEL-5 melanoma): 1.53 µM
- TGI (SK-MEL-5 melanoma): 3.48 µM
- GI50 (LOX IMVI melanoma): 1.26 µM
- TGI (LOX IMVI melanoma): 2.52 µM
- GI50 (RXF 393 renal): 1.74 µM
- TGI (RXF 393 renal): 3.27 µM

Structure (SMILES): O=C1CC(c2ccc(N3CCOCC3)cc2)(c2ccsc2)NC(=O)C1Sc1ccccc1Cl (configuration not stated)
- GI50 (SNB-19 CNS): 16.9 µM
- TGI (SNB-19 CNS): 63.8 µM
- GI50 (DU-145 prostate): 53.9 µM
- TGI (DU-145 prostate): > 100 µM
- GI50 (TK-10 renal): 75.9 µM
- TGI (TK-10 renal): > 100 µM
- GI50 (CAKI-1 renal): 52.7 µM
- TGI (CAKI-1 renal): > 100 µM
- GI50 (HOP-62 NSCLC): 13.6 µM
- TGI (HOP-62 NSCLC): > 100 µM
- GI50 (UO-31 renal): 33.7 µM
- TGI (UO-31 renal): > 100 µM
- GI50 (K-562 leukemia): 3.97 µM
- TGI (K-562 leukemia): > 100 µM
- GI50 (NCI-H322M lung): > 100 µM
- TGI (NCI-H322M lung): > 100 µM
- GI50 (SN12C renal): 4.53 µM
- TGI (SN12C renal): 23.4 µM
- GI50 (RPMI-8226 leukemia): 10.5 µM
- TGI (RPMI-8226 leukemia): 41.2 µM
- GI50 (SK-MEL-5 melanoma): > 100 µM
- TGI (SK-MEL-5 melanoma): > 100 µM
- GI50 (LOX IMVI melanoma): 35.9 µM
- TGI (LOX IMVI melanoma): > 100 µM
- GI50 (RXF 393 renal): 2.58 µM
- TGI (RXF 393 renal): 7.47 µM
